Values quoted from earlier work in patent publication US10052341B2, “Method for preparing an anthelmintic composition, anthelmintic composition, veterinary treatment method and anthelmintic treatment method” (OURO FINO SAUDE ANIMAL PARTICIPACOES SA, priority 2013, dated 2018).

Conditions: pH 5

SMILES | Water-solubility
CCC[S+]([O-])c1ccc2[nH]c(NC(=O)OC)nc2c1 (centres unmarked) [albendazole sulfoxide] | 67 µg/mL
CCCSc1ccc2nc(NC(=O)OC)[nH]c2c1 [albendazole] | 0.53 µg/mL
